Measurements as given in ChEMBL document CHEMBL1201862, “PubChem BioAssay data set” (2004).
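Tested at 5 concentrations; 48 h exposure; 96-well plates; endpoints linearly interpolated, else capped at highest concentration. GI50 is the concentration that inhibits growth by half.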 Activity calls are given as the source filed them. Cut-off read from the data, not from the text of the source: active = GI50 up to about 1.1 µM and inactive = higher.

Tests used:
Experiment in all cases: NCI tumour cell line growth inhibition, 48 h
[1] = tested on: 786-0
[2] = tested on: A498
[3] = tested on: A549
[4] = tested on: ACHN
[5] = tested on: BT-549
[6] = tested on: CAKI-1
[7] = tested on: CCRF-CEM
[8] = tested on: COLO 205
[9] = tested on: DU-145
[10] = tested on: EKVX
[11] = tested on: HCT-116
[12] = tested on: HCT-15
[13] = tested on: HL-60
[14] = tested on: HOP-62
[15] = tested on: HOP-92
[16] = tested on: HT-29
[17] = tested on: Hs-578T
[18] = tested on: IGROV-1
[19] = tested on: K562
[20] = tested on: KM12
[21] = tested on: LOX IMVI
[22] = tested on: M14
[23] = tested on: MCF7
[24] = tested on: MDA-MB-231
[25] = tested on: MDA-MB-435
[26] = tested on: MDA-N
[27] = tested on: MOLT-4
[28] = tested on: Malme-3M
[29] = tested on: NCI-H226
[30] = tested on: NCI-H23
[31] = tested on: NCI-H460
[32] = tested on: NCI-H522
[33] = tested on: NCI/ADR-RES
[34] = tested on: OVCAR-3
[35] = tested on: OVCAR-4
[36] = tested on: OVCAR-5
[37] = tested on: OVCAR-8
[38] = tested on: PC-3
[39] = tested on: RPMI-8226
[40] = tested on: RXF 393
[41] = tested on: SF-268
[42] = tested on: SF-295
[43] = tested on: SF-539
[44] = tested on: SK-MEL-28
[45] = tested on: SK-MEL-2
[46] = tested on: SK-MEL-5
[47] = tested on: SK-OV-3
[48] = tested on: SN12C
[49] = tested on: SNB-19
[50] = tested on: SNB-75
[51] = tested on: SR
[52] = tested on: SW-620
[53] = tested on: T47D
[54] = tested on: TK-10
[55] = tested on: U-251
[56] = tested on: UACC-257
[57] = tested on: UO-31
[58] = tested on: HCC 2998
[59] = tested on: UACC-62

Measured: GI50

CC(N/N=N/c1ccc(-c2nc3ccccc3[nH]2)cc1)C(=O)O (stereo not given)
inactive: [1] 15.7 µM | [2] > 100 µM | [3] 33 µM | [4] 40.3 µM | [5] 3.73 µM | [6] 42.7 µM | [7] 3.18 µM | [8] 25.9 µM | [9] 49.4 µM | [10] 31.8 µM | [11] 28.9 µM | [13] 32.6 µM | [14] 45.2 µM | [15] > 100 µM | [16] 29.5 µM | [17] 33.7 µM | [18] 12.9 µM | [19] 7.16 µM | [20] 19.2 µM | [21] 28.2 µM | [22] 35.1 µM | [23] 4.21 µM | [24] 33.7 µM | [25] 32.7 µM | [26] 27.5 µM | [27] 5.01 µM | [28] 26.3 µM | [29] > 100 µM | [30] 62.2 µM | [31] 17.5 µM | [32] 23.3 µM | [33] 7.94 µM | [34] 18.6 µM | [35] 37.6 µM | [36] > 100 µM | [37] 22.2 µM | [38] 25.6 µM | [39] 1.91 µM | [40] 34.1 µM | [41] 32.7 µM | [42] 19.6 µM | [43] 55 µM | [44] > 100 µM | [45] 59.3 µM | [46] 18.8 µM | [47] > 100 µM | [48] 36.3 µM | [49] > 100 µM | [50] > 100 µM | [51] 2.4 µM | [52] 29.8 µM | [53] 16.3 µM | [54] 81.7 µM | [55] 18.1 µM | [56] > 100 µM | [57] 39.1 µM
9.57 µM: [12]

CC(=N/N=C/c1ccccn1)/C(C)=N/N=C(C)/C(C)=N/N=C(C)/C(C)=N/N=C(C)/C(C)=N\N=C\c1ccccn1
inactive: [1] > 100 µM | [2] > 100 µM | [3] > 100 µM | [4] > 100 µM | [5] > 100 µM | [6] > 100 µM | [8] > 100 µM | [9] > 100 µM | [10] > 100 µM | [58] > 100 µM | [11] > 100 µM | [13] 49.1 µM | [14] > 100 µM | [15] > 100 µM | [16] > 100 µM | [17] > 100 µM | [18] > 100 µM | [19] > 100 µM | [20] > 100 µM | [21] > 100 µM | [22] > 100 µM | [23] > 100 µM | [24] > 100 µM | [25] > 100 µM | [26] > 100 µM | [28] > 100 µM | [29] > 100 µM | [30] > 100 µM | [31] > 100 µM | [32] > 100 µM | [33] > 100 µM | [34] > 100 µM | [35] > 100 µM | [36] > 100 µM | [37] > 100 µM | [38] > 100 µM | [39] > 100 µM | [40] > 100 µM | [41] > 100 µM | [42] > 100 µM | [43] > 100 µM | [44] > 100 µM | [45] > 100 µM | [46] > 100 µM | [47] > 100 µM | [48] > 100 µM | [49] > 100 µM | [50] > 100 µM | [51] > 100 µM | [52] > 100 µM | [53] > 100 µM | [54] > 100 µM | [55] > 100 µM | [56] > 100 µM | [57] > 100 µM
> 100 µM: [12]

Fc1ccc(C(=C2CCN(CCc3ccc4[nH]c(=S)[nH]c4c3)CC2)c2ccc(F)cc2)cc1
inactive: [1] 1.86 µM | [2] 8.38 µM | [3] 3.94 µM | [4] 8.83 µM | [5] 5.98 µM | [6] 10.8 µM | [7] 2.01 µM | [8] 1.72 µM | [9] 2.98 µM | [10] 3.51 µM | [11] 1.79 µM | [13] 2.33 µM | [14] 15.8 µM | [15] 2.62 µM | [16] 1.9 µM | [17] 10.9 µM | [18] 3.99 µM | [19] 3.1 µM | [20] 6.47 µM | [21] 4.9 µM | [22] 1.83 µM | [23] 2.21 µM | [24] 4.43 µM | [25] 1.79 µM | [26] 1.96 µM | [27] 3 µM | [28] 1.47 µM | [29] 22 µM | [30] 5.02 µM | [31] 2.83 µM | [32] 1.52 µM | [33] 8.59 µM | [34] 2.1 µM | [35] 5 µM | [36] 9.23 µM | [37] 2.74 µM | [38] 2.73 µM | [39] 2.73 µM | [40] 1.85 µM | [41] 6.65 µM | [42] 6.92 µM | [43] 2.79 µM | [44] 1.51 µM | [45] 2.7 µM | [46] 1.84 µM | [47] 18.7 µM | [48] 4.52 µM | [49] 12.4 µM | [50] 2.92 µM | [51] 2.7 µM | [52] 2.47 µM | [53] 1.92 µM | [54] 2.17 µM | [55] 4.48 µM | [59] 5.32 µM | [57] 2.67 µM
3.15 µM: [12]

O=C(CCC(=O)c1ccsc1)c1ccsc1
inactive: [1] > 100 µM | [2] > 100 µM | [3] > 100 µM | [4] > 100 µM | [5] > 100 µM | [6] > 100 µM | [8] > 100 µM | [9] > 100 µM | [58] > 100 µM | [11] > 100 µM | [13] > 100 µM | [14] > 100 µM | [15] > 100 µM | [17] > 100 µM | [18] > 100 µM | [20] > 100 µM | [21] > 100 µM | [22] > 100 µM | [23] 74.8 µM | [24] > 100 µM | [25] > 100 µM | [26] > 100 µM | [27] > 100 µM | [28] > 100 µM | [29] > 100 µM | [30] > 100 µM | [31] > 100 µM | [32] > 100 µM | [33] > 100 µM | [34] > 100 µM | [35] > 100 µM | [36] > 100 µM | [37] > 100 µM | [38] > 100 µM | [39] > 100 µM | [40] > 100 µM | [41] > 100 µM | [42] > 100 µM | [43] > 100 µM | [44] > 100 µM | [45] > 100 µM | [46] > 100 µM | [47] > 100 µM | [48] > 100 µM | [49] > 100 µM | [50] > 100 µM | [51] > 100 µM | [52] > 100 µM | [53] > 100 µM | [54] > 100 µM | [55] > 100 µM | [56] > 100 µM | [59] > 100 µM | [57] > 100 µM
> 100 µM: [12]

C/C=C(\C)c1cc(=O)c2c(C)cc3c(c2o1)C(OC)(OC(C)=O)c1c(O)c(C2CC(C)(N(C)C)C(OC(C)=O)C(C)O2)cc(C2CC(N(C)C)C(OC(C)=O)C(C)O2)c1C3=O (stereo not given)
inactive: [2] 1.27 µM | [5] 2.27 µM | [8] 1.24 µM | [15] 1.28 µM | [17] 1.16 µM | [18] 1.61 µM | [20] 1.14 µM | [22] 1.24 µM | [23] 1.64 µM | [25] 1.52 µM | [26] 1.64 µM | [29] 1.34 µM | [33] 1.75 µM | [34] 2.28 µM | [36] 2.17 µM | [38] 1.16 µM | [40] 1.37 µM | [43] 1.55 µM | [44] 3.77 µM | [45] 2.18 µM | [46] 1.51 µM | [47] 2.75 µM | [49] 1.78 µM | [50] 1.69 µM | [53] 3.74 µM | [54] 1.45 µM | [56] 1.55 µM | [59] 1.22 µM | [57] 1.57 µM
1.05 µM: [12]
active: [1] 0.288 µM | [3] 0.514 µM | [4] 0.202 µM | [6] 0.436 µM | [7] 0.419 µM | [9] 0.497 µM | [10] 1.07 µM | [58] 0.0218 µM | [11] 0.286 µM | [14] 0.621 µM | [16] 0.489 µM | [19] 0.239 µM | [21] 0.512 µM | [24] 0.178 µM | [27] 0.277 µM | [28] 0.544 µM | [30] 1.02 µM | [32] 0.254 µM | [37] 0.552 µM | [41] 0.27 µM | [42] 0.942 µM | [48] 0.893 µM | [51] 0.0251 µM | [52] 0.237 µM | [55] 0.914 µM
